The values below are quoted from earlier work in patent publication EP1677774B1, “CITICOLINE-BASED COMPOSITION IN COMBINATION WITH VITAMINS FOR THE PREVENTION AND TREATMENT OF EYE PATHOLOGIES” (Bausch & Lomb IOM S.p.A., priority 2003, dated 2005).

Each structure is given as a SMILES string.

Series [1] concerns glaucomatous patients. The settings on record: intramuscular administration.

As for `C[N+](C)(C)CCOP(=O)(O)OP(=O)([O-])OC[C@H]1O[C@@H](n2ccc(N)nc2=O)[C@H](O)[C@@H]1O` [CDP-choline, cytidine-5'-diphosphocholine], for the setting “intravenous or oral administration”, the “metabolic fate after administration” value was “immediately hydrolysed and converted into the two circulating metabolites cytidine and choline”. Where the note is “oral compared with intravenous administration”, the “calculated bioavailability for oral administration” value is “virtually the same as the one calculated for intravenous administration”. In addition, the “effect on the optic nerve (perimetric measures)” value in series [1] (long-term clinical studies) is listed as “positive effect on the damaged optic nerve”. In series [1] (short-term clinical study), the “retinal and supraretinal signal conduction” value is given as “functional improvement”.
